Measurements reported in ChEMBL document CHEMBL4308841, “Synthesis, in vitro antiproliferative activity, and kinase inhibitory effects of pyrazole-containing diarylureas and diarylamides” (Eur J Med Chem, 2018).

Tested on: MOLT-4
Test: Growth inhibition of human MOLT4 cells assessed as cell growth at 10 uM incubated for 48 hrs by sulforhodamine B assay relative to control
Type: functional
Conditions: MOLT-4, 48 h, read-out: Activity

| Compound | growth at 10 µM [%] |
| --- | --- |
| COc1cc(Cl)cc(-c2nn(-c3cccc(NC(=O)c4ccc(Cl)c(Cl)c4)c3)cc2-c2ccncc2)c1 | 54.9 |

Tested on: HOP-62
Test: Growth inhibition of human HOP62 cells assessed as cell growth at 10 uM incubated for 48 hrs by sulforhodamine B assay relative to control
Type: functional
Conditions: HOP-62, 48 h, read-out: Activity

| Compound | growth at 10 µM [%] |
| --- | --- |
| COc1cc(Cl)cc(-c2nn(-c3cccc(NC(=O)c4ccc(Cl)c(Cl)c4)c3)cc2-c2ccncc2)c1 | 105 |

Tested on: NCI-H226
Test: Growth inhibition of human NCI-H226 cells assessed as cell growth at 10 uM incubated for 48 hrs by sulforhodamine B assay relative to control
Type: functional
Conditions: NCI-H226, 48 h, read-out: Activity

| Compound | growth at 10 µM [%] |
| --- | --- |
| COc1cc(Cl)cc(-c2nn(-c3cccc(NC(=O)c4ccc(Cl)c(Cl)c4)c3)cc2-c2ccncc2)c1 | 66.2 |

Tested on: NCI-H460
Test: Growth inhibition of human NCI-H460 cells assessed as cell growth at 10 uM incubated for 48 hrs by sulforhodamine B assay relative to control
Type: functional
Conditions: NCI-H460, 48 h, read-out: Activity

| Compound | growth at 10 µM [%] |
| --- | --- |
| COc1cc(Cl)cc(-c2nn(-c3cccc(NC(=O)c4ccc(Cl)c(Cl)c4)c3)cc2-c2ccncc2)c1 | 65.2 |

Tested on: HCT-116
Test: Growth inhibition of human HCT116 cells assessed as cell growth at 10 uM incubated for 48 hrs by sulforhodamine B assay relative to control
Type: functional
Conditions: HCT-116, 48 h, read-out: Activity

| Compound | growth at 10 µM [%] |
| --- | --- |
| COc1cc(Cl)cc(-c2nn(-c3cccc(NC(=O)c4ccc(Cl)c(Cl)c4)c3)cc2-c2ccncc2)c1 | 44.1 |

Tested on: LOX IMVI
Test: Growth inhibition of human LOXIMVI cells assessed as cell growth at 10 uM incubated for 48 hrs by sulforhodamine B assay relative to control
Type: functional
Conditions: read-out: Activity

| Compound | growth at 10 µM [%] |
| --- | --- |
| COc1cc(Cl)cc(-c2nn(-c3cccc(NC(=O)c4ccc(Cl)c(Cl)c4)c3)cc2-c2ccncc2)c1 | 72.8 |

Tested on: MDA-MB-435
Test: Growth inhibition of human MDA-MB-435 cells assessed as cell growth at 10 uM incubated for 48 hrs by sulforhodamine B assay relative to control
Type: functional
Conditions: MDA-MB-435, 48 h, read-out: Activity

| Compound | growth at 10 µM [%] |
| --- | --- |
| COc1cc(Cl)cc(-c2nn(-c3cccc(NC(=O)c4ccc(Cl)c(Cl)c4)c3)cc2-c2ccncc2)c1 | 80.8 |

Tested on: UACC-257
Test: Growth inhibition of human UACC257 cells assessed as cell growth at 10 uM incubated for 48 hrs by sulforhodamine B assay relative to control
Type: functional
Conditions: UACC-257, 48 h, read-out: Activity

| Compound | growth at 10 µM [%] |
| --- | --- |
| COc1cc(Cl)cc(-c2nn(-c3cccc(NC(=O)c4ccc(Cl)c(Cl)c4)c3)cc2-c2ccncc2)c1 | 84.2 |

Tested on: UACC-62
Test: Growth inhibition of human UACC62 cells assessed as cell growth at 10 uM incubated for 48 hrs by sulforhodamine B assay relative to control
Type: functional
Conditions: UACC-62, 48 h, read-out: Activity

| Compound | growth at 10 µM [%] |
| --- | --- |
| COc1cc(Cl)cc(-c2nn(-c3cccc(NC(=O)c4ccc(Cl)c(Cl)c4)c3)cc2-c2ccncc2)c1 | 75.4 |

Tested on: IGROV-1
Test: Growth inhibition of human IGROV1 cells assessed as cell growth at 10 uM incubated for 48 hrs by sulforhodamine B assay relative to control
Type: functional
Conditions: IGROV-1, 48 h, read-out: Activity

| Compound | growth at 10 µM [%] |
| --- | --- |
| COc1cc(Cl)cc(-c2nn(-c3cccc(NC(=O)c4ccc(Cl)c(Cl)c4)c3)cc2-c2ccncc2)c1 | 71.6 |

Tested on: OVCAR-3
Test: Growth inhibition of human OVCAR3 cells assessed as cell growth at 10 uM incubated for 48 hrs by sulforhodamine B assay relative to control
Type: functional
Conditions: OVCAR-3, 48 h, read-out: Activity

| Compound | growth at 10 µM [%] |
| --- | --- |
| COc1cc(Cl)cc(-c2nn(-c3cccc(NC(=O)c4ccc(Cl)c(Cl)c4)c3)cc2-c2ccncc2)c1 | 53.4 |

Tested on: NCI/ADR-RES
Test: Growth inhibition of human NCI/ADR-RES cells assessed as cell growth at 10 uM incubated for 48 hrs by sulforhodamine B assay relative to control
Type: functional
Conditions: read-out: Activity

| Compound | growth at 10 µM [%] |
| --- | --- |
| COc1cc(Cl)cc(-c2nn(-c3cccc(NC(=O)c4ccc(Cl)c(Cl)c4)c3)cc2-c2ccncc2)c1 | 61.4 |

Tested on: SK-OV-3
Test: Growth inhibition of human SKOV3 cells assessed as cell growth at 10 uM incubated for 48 hrs by sulforhodamine B assay relative to control
Type: functional
Conditions: SK-OV-3, 48 h, read-out: Activity

| Compound | growth at 10 µM [%] |
| --- | --- |
| COc1cc(Cl)cc(-c2nn(-c3cccc(NC(=O)c4ccc(Cl)c(Cl)c4)c3)cc2-c2ccncc2)c1 | 80.1 |

Tested on: 786-0
Test: Growth inhibition of human 786-0 cells assessed as cell growth at 10 uM incubated for 48 hrs by sulforhodamine B assay relative to control
Type: functional
Conditions: 786-0, 48 h, read-out: Activity

| Compound | growth at 10 µM [%] |
| --- | --- |
| COc1cc(Cl)cc(-c2nn(-c3cccc(NC(=O)c4ccc(Cl)c(Cl)c4)c3)cc2-c2ccncc2)c1 | 74.1 |

Tested on: ACHN
Test: Growth inhibition of human ACHN cells assessed as cell growth at 10 uM incubated for 48 hrs by sulforhodamine B assay relative to control
Type: functional
Conditions: read-out: Activity

| Compound | growth at 10 µM [%] |
| --- | --- |
| COc1cc(Cl)cc(-c2nn(-c3cccc(NC(=O)c4ccc(Cl)c(Cl)c4)c3)cc2-c2ccncc2)c1 | 63.9 |

Tested on: CAKI-1
Test: Growth inhibition of human Caki1 cells assessed as cell growth at 10 uM incubated for 48 hrs by sulforhodamine B assay relative to control
Type: functional
Conditions: CAKI-1, 48 h, read-out: Activity

| Compound | growth at 10 µM [%] |
| --- | --- |
| COc1cc(Cl)cc(-c2nn(-c3cccc(NC(=O)c4ccc(Cl)c(Cl)c4)c3)cc2-c2ccncc2)c1 | 63.6 |

Tested on: RXF 393
Test: Growth inhibition of human RXF393 cells assessed as cell growth at 10 uM incubated for 48 hrs by sulforhodamine B assay relative to control
Type: functional
Conditions: RXF 393, 48 h, read-out: Activity

| Compound | growth at 10 µM [%] |
| --- | --- |
| COc1cc(Cl)cc(-c2nn(-c3cccc(NC(=O)c4ccc(Cl)c(Cl)c4)c3)cc2-c2ccncc2)c1 | 59.2 |

Tested on: SN12C
Test: Growth inhibition of human SN12C cells assessed as cell growth at 10 uM incubated for 48 hrs by sulforhodamine B assay relative to control
Type: functional
Conditions: read-out: Activity

| Compound | growth at 10 µM [%] |
| --- | --- |
| COc1cc(Cl)cc(-c2nn(-c3cccc(NC(=O)c4ccc(Cl)c(Cl)c4)c3)cc2-c2ccncc2)c1 | 69.6 |

Tested on: UO-31
Test: Growth inhibition of human UO31 cells assessed as cell growth at 10 uM incubated for 48 hrs by sulforhodamine B assay relative to control
Type: functional
Conditions: UO-31, 48 h, read-out: Activity

| Compound | growth at 10 µM [%] |
| --- | --- |
| COc1cc(Cl)cc(-c2nn(-c3cccc(NC(=O)c4ccc(Cl)c(Cl)c4)c3)cc2-c2ccncc2)c1 | 43.5 |

Tested on: DU-145
Test: Growth inhibition of human DU145 cells assessed as cell growth at 10 uM incubated for 48 hrs by sulforhodamine B assay relative to control
Type: functional
Conditions: DU-145, 48 h, read-out: Activity

| Compound | growth at 10 µM [%] |
| --- | --- |
| COc1cc(Cl)cc(-c2nn(-c3cccc(NC(=O)c4ccc(Cl)c(Cl)c4)c3)cc2-c2ccncc2)c1 | 88.5 |

Tested on: MDA-MB-468
Test: Growth inhibition of human MDA-MB-468 cells assessed as cell growth at 10 uM incubated for 48 hrs by sulforhodamine B assay relative to control
Type: functional
Conditions: MDA-MB-468, 48 h, read-out: Activity

| Compound | growth at 10 µM [%] |
| --- | --- |
| COc1cc(Cl)cc(-c2nn(-c3cccc(NC(=O)c4ccc(Cl)c(Cl)c4)c3)cc2-c2ccncc2)c1 | 54.6 |
